Test results taken from patent US20110263527A1, “Sulfated Galactans With Antithrombotic Activity, Pharmaceutical Composition, Method for Treating or Prophylaxis of Arterial or Venous Thrombosis, Method of Extraction and Use Thereof” (priority 2008, published 2011).

Tests used:
[1] = target: T1, factor Xa (antithrombin-mediated inactivation) (Homo sapiens, UniProt P00742+P01008); test: Factor Xa inhibition by antithrombin in the presence of sulfated polysaccharides; assay type: biochemical; settings: antithrombin 10 nM, factor Xa 2 nM, FIG. 2B
T1 construct: thrombin or factor Xa 2 nM (Haematologic Technologies Inc., Vermont, USA); purchased Haematologic Technologies Inc., Vermont, USA
Procedure: (§1) Antithrombin (10 nM) or of heparin cofactor II (15 nM) were incubated with thrombin (2 nM) or factor Xa (2 nM) in the presence of various concentrations of non-fractionated heparin (□), low molecular weight heparin (▪), native sulfated galactans (▴), ˜14 kDa fragment (◯) and a ˜5 kDa fragment ([…]). After 60 seconds, the amidolytic thrombin activity and factor Xa were determined with a chromogenic substrate specific for each protease ([…]) [mean±standard error of the mean (SEM), n=3]. No inhibition was observed when thrombin or factor Xa was incubated with sulfated polysaccharide alone over the same range of tested concentrations.
(§2) g) Thrombin Inhibition or Factor Xa by Antithrombin and Heparin Cofactor II in the Presence of Sulfated Polysaccharides
(§3) The incubations were performed on plates of 96 wells. […] After 60 seconds at 37° C., were added 25 μL chromogenic substrate (S-2238 for thrombin or S-2222 for factor Xa) (Chromogenix AB, Mondal, Sweden), and was recorded absorbance at 405 nm for 120 seconds. The rate of absorbance change was proportional to the activity of thrombin or factor Xa remaining in the incubation. […]

[2] = International Standard (85/600); cited from earlier work
[3] = target: T2, thrombin (antithrombin-mediated inactivation) (Homo sapiens, UniProt P00734+P01008); test: Thrombin inhibition by antithrombin in the presence of sulfated polysaccharides; assay type: biochemical; settings: antithrombin 10 nM, thrombin 2 nM, FIG. 2A
T2 construct: purchased Haematologic Technologies Inc., Vermont, USA
Procedure: as §1, §2, §3

[4] = target: T3, thrombin (heparin cofactor II-mediated inactivation) (Homo sapiens, UniProt P00734+P05546); test: Thrombin inhibition by heparin cofactor II in the presence of sulfated polysaccharides; assay type: biochemical; settings: heparin cofactor II 15 nM, thrombin 2 nM, FIG. 2C
T3 construct: purchased Haematologic Technologies Inc., Vermont, USA
Procedure: as §1, §2, §3

bleeding = test system: bleeding; design: species or system Wistar rats; settings: rat, in vivo
Procedure: FIG. 6 refers to the effect on bleeding. Non-fractionated heparin (□), low molecular weight heparin (▪), native sulfated galactans (▴), and ˜5 kDa fragment ([…]) were infused into rats. After 5 minutes, the rats' tails were cut 3 mm from the tip and immersed in 40 mL of distilled water at room temperature. The loss of blood was determined after 60 minutes through the measure of hemoglobin in water. The results were expressed in μL of loss blood (mean±standard error of the mean (SEM), n=4). For clarity purposes only one SEM bar is shown for each point.
Wistar rats (both sexes, body weight ˜250 g) were anesthetized with a mixture of ketamine and xylazine, as previously described. The right carotid artery was cannulated and different polysaccharides doses were infused and allowed to circulate for 5 minutes. The rats tail was cut 3 mm from the tip and immersed in 40 mL of distilled water at room temperature. After 60 minutes, blood loss was determined by measuring the hemoglobin in water by using a spectrophotometric method (Zancan P, Mourão P A S. Venous and arterial thrombosis in rat models: dissociation of the antithrombotic effects of giycosaminoglycans. Blood Coagul Fibrin 2004; 15: 45-54). The blood volume was drawn from a standard curve based on absorbance at 540 nm.

venous thrombosis = test: Venous thrombosis model (vena cava, thromboplastin and stasis); assay type: in vivo, Wistar rats; settings: 1.00 mg/kg; FIGS. 3A and 3B
Procedure: Assays were performed in rats with different doses of non-fractionated heparin (□), low molecular weight heparin (▪), native sulfated galactans (▴), ˜14 kDa fragment (◯) and a ˜5 kDa fragment ([…]) (mean±standard error of the mean (SEM), n=3). Thrombosis induced model (A and B) in the rats' vena cava. The mean weight of the thrombus for each dose was expressed as a percentage of weight in the absence of polysaccharide, (C) Thrombosis in the arteriovenous shunt model. The mean weight of the thrombus for each dose was expressed as a percentage of the weight of thrombus in the absence of polysaccharide, (D) laser irradiation induced arterial thrombosis model in the carotid artery. Results were expressed as the mean time to complete occlusion of the artery.
The antithrombotic activity in rats was investigated using rabbit brain thromboplastin with thrombogenic stimulus. We followed the guidelines for institutional animal care and experimentation. Wistar rats (both sexes, body weight of ˜250 g) were anesthetized with a mixture of ketamine and xylazine, as already described. […] A 0.7 cm segment was prepared starting just below the branching of the right renal vein and extending until after the left renal vein which was linked. Different doses of sulfated polysaccharides were intravenously administered 1 cm below the distal lost suture and moved left for 5 minutes. […]

factor XII = target: T4, factor XII (Homo sapiens, UniProt P00748); test: Activation of factor XII in human plasma in the presence of sulfated polysaccharides; assay type: biochemical; settings: chromogenic substrate S-2302, FIG. 4
T4 construct: from tissue; host or cells: citrated human plasma
T4 sequence (P00748 20-615): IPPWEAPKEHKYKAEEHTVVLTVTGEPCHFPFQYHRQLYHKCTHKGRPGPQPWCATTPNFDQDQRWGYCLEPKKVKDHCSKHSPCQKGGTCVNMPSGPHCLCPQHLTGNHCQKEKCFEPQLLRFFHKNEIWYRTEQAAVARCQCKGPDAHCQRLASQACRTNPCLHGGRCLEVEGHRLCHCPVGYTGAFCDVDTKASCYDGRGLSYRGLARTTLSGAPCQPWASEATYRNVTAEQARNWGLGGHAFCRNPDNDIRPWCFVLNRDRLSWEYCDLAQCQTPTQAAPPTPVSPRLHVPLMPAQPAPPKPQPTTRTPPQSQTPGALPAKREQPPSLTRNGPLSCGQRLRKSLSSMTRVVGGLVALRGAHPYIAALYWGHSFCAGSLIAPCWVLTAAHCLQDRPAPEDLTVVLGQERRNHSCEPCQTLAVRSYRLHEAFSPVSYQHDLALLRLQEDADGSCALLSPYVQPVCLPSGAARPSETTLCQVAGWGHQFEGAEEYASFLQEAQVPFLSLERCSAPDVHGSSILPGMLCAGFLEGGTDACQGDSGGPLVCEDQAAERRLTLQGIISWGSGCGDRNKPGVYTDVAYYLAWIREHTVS
Procedure: FIG. 4 refers to the factor XII activation in human plasma incubated with non-fractionated heparin (□), native sulfated galactans (▴), ˜14 kDa fragment (◯) and a ˜5 kDa fragment ([…]). After 60 seconds of incubation at 37° C., 0.3 mM of chromogenic substrate for plasma calicrein was added. The increase in absorbance at 405 nm was expressed in milli OD/min (mean±standard error of the mean (SEM), n=3).
h) Activation of Factor XII in the Presence of Sulfated Polysaccharides
The assays for activation of factor XII were performed on plates of 96 wells. Citrated human plasma was diluted with 3 volumes of TS buffer and samples (40 μL) were incubated with different concentrations of sulfated polysaccharides (30 μL). After incubation at 37° C. for 60 seconds, were added 30 μL of chromogenic substrate (S-2302, 0.3 mM) (Chromogenix AB, Mondal, Sweden) and absorbance at 405 nm for 300 seconds was recorded. S-2302 is a chromogenic substrate for plasma calicrein activated by its precalicrein precursor through the action of activated factor XII. The method for determining the activity of factor XIIa is based on difference in absorbance between formed p-nitroanilide and original substrate. The formation rate of p-nitroanilide, i.e., the increase in absorbance at 405 nm, is proportional to enzyme activity. No activation occurred in control experiments in the absence of sulfated polysaccharide.

T1 sequence (P00742 41-179 limits assumed): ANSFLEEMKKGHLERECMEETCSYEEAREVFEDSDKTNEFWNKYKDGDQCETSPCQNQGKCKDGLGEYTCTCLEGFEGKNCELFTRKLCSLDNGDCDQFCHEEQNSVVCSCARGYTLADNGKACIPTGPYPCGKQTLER
T1 sequence (P00742 235-488 limits assumed): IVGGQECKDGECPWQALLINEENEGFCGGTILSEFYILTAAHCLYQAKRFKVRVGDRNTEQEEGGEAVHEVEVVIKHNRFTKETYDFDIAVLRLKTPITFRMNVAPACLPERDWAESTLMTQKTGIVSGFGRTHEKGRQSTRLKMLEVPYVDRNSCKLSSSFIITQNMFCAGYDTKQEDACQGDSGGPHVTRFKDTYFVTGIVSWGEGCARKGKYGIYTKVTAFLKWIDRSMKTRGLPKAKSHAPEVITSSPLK
T1 sequence (P01008 33-464): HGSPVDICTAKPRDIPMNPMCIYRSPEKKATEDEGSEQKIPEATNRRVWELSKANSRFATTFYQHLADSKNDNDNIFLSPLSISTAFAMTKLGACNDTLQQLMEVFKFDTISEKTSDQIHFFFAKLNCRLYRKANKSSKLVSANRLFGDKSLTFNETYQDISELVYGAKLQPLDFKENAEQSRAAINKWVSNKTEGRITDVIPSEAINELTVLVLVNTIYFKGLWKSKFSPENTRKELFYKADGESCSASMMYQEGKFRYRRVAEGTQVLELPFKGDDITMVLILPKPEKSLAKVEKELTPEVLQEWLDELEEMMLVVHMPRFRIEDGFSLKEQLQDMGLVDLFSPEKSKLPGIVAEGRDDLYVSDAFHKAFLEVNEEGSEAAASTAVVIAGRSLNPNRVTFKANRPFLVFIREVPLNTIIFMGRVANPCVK

Row | inactivation of factor Xa by antithrombin [1] | inactivation of thrombin by antithrombin [3] | inactivation of thrombin by heparin cofactor II [4] | effect on bleeding (hemorrhagic effect, bleeding time) (bleeding) | factor XII activation (factor XII) | Substance | activity of the standard [2] | antithrombotic activity (venous thrombosis)
1 | more active than ˜5 kDa fragment | more active than ˜5 kDa fragment | more active than ˜5 kDa fragment | had no effect | – | low molecular weight heparin | 66 IU/mg | approximately 70%
2 | – | – | – | – | activates factor XII | dextran sulfate | – | –
